Data taken from patent US10231908B2, “Method of reducing hair loss associated with chemotherapy” (Galderma S.A., priority 2015, dated 2019).
Entries after “also recorded” stand apart in the source; their conditions may differ. Where a name gives a salt, the structure may show the parent alone.

Tests used:
[1] = tested on: cyclophosphamide-induced alopecia in C57B16 mice; assay: Cyclophosphamide-induced alopecia in mice after anagen induction by depilation; assay type: in vivo; conditions: for % of alopecia versus control: read on day 15
[2] = epinephrine 450 mM topical plus CYP at day 9

Compound: Brc1c(NC2=NCCN2)ccc2nccnc12 [Brimonidine, Brimonidine tartrate]
- % of alopecia versus control ([1]; brimonidine 35 mM (1%) topical, 100 μL, at t-2 hours and repeated 2 hours later, CYP 120 mg/kg i.p. at day 9): prevents alopecia; also recorded: prevented hair loss
- hair shedding in dorsal depilated area (representative pictures) ([1]; topical brimonidine, CYP-injected mice, day 15 after depilation): more hairs did not shed

Compound: CNC[C@H](O)c1ccc(O)c(O)c1 [Epinephrine, Epinephrine hydrochloride]
- % of alopecia versus control ([1]; epinephrine 450 mM topical, 20 min before and 10, 40 and 60 min after CYP 120 mg/kg i.p. at day 9, hydrochloride): worsened it; also recorded: worsened alopecia
- body weight of mice [2]: temporarily decreased the body weight
